Test results as given in article PMC8216263 (Pharmaceutical Biology, 2021).
≈ marks a conversion by molar mass, not a printed value.

How the values were obtained:
OAT1 = target: T1, OAT1 (Homo sapiens, UniProt Q4U2R8); test: Inhibition of OAT1-mediated 14C-PAH uptake in MDCK-OAT1 cells; type: cell-based
T1 construct: host or cells: MDCK
T1 sequence (Q4U2R8 1-563): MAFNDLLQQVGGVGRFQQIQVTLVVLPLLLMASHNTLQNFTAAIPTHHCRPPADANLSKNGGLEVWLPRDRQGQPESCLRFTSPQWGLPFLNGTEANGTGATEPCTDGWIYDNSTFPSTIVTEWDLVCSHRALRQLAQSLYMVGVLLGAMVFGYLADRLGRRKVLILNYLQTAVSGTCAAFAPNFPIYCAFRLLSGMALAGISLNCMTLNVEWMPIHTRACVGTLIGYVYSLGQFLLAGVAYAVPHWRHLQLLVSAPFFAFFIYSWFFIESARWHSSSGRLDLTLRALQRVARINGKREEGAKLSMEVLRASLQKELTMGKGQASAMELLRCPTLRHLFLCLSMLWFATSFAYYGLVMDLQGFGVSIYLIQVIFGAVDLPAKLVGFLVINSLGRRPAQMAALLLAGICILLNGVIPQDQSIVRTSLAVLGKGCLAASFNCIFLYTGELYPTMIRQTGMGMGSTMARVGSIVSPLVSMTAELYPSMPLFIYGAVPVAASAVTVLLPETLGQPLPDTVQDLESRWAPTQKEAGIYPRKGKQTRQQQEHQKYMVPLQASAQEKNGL
Procedure: Cells were cultured in DMEM supplemented with 10% FBS, 100 units/mL penicillin and 100 units/mL streptomycin. […] Cell culture flasks, 24-well cell culture plates, and transwell polycarbonate inserts (12 mm diameter, 0.4 μm pore size) were purchased from Corning Co-star Corp. (Bedford, MA).
The MDCK-OAT1, S2-OAT3, S2-OCT2 and HEK293-OATP1B1 cell lines were utilized in this study. […] Briefly, S2-OAT3, S2-OCT2 and S2-mock cells were trypsinized and uniformly suspended in the culture medium’s designated volume to provide a density of 2.0 × 10^5 cells/mL. A 1.0-mL aliquot of the cell suspension was added into each well of 24-well insert plates. HEK293-OATP1B1, MDCK-OAT1 and their mock cells were seeded in 24-well plates at a density of 1.5 × 10^5 cells/well. […] Three washes terminated the experiment with ice-cold DPBS buffer after removing the incubation buffer. Cells were lysed with 400 μL of […] sodium hydroxide solution. The cell lysate and 3.0 mL of aquasol-2 scintillation fluid were put into a scintillation flask. […] The final concentration of DMSO in the assay was less than 0.1%. All experiments were performed in triplicate.

BCRP = target: T2, BCRP (Homo sapiens, UniProt Q9UNQ0); test: Inhibition of BCRP-mediated lucifer yellow efflux in MDCK-BCRP cells; type: cell-based; conditions: for inhibitory effect on efflux of BCRP-mediated lucifer yellow: GA 50–5000 μg/L, PCA 10–1000 μg/L
T2 sequence (Q9UNQ0 1-655): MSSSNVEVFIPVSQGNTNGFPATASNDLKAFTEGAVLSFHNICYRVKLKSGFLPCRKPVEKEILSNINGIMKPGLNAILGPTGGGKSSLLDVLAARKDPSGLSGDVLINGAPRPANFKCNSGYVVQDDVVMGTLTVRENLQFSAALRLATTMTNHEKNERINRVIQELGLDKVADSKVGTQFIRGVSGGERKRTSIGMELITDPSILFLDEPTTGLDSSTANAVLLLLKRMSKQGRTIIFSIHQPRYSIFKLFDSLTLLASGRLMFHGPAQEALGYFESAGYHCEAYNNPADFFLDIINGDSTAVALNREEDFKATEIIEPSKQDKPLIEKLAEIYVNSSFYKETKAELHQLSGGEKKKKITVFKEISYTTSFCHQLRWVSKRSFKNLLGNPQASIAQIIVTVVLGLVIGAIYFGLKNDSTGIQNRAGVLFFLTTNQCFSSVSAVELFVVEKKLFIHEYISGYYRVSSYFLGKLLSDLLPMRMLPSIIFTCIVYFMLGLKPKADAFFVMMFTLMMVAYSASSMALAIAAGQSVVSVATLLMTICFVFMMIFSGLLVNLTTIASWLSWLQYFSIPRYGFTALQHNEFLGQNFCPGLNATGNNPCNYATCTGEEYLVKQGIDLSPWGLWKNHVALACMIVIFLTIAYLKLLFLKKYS
Source text: The human multidrug resistance protein (MDR)1-transfected Madin–Darby Canine Kidney (MDCK) cells, human breast cancer resistance protein (BCRP)-transfected MDCK cells, human organic anion transporter (OAT)1-transfected MDCK cells, OAT3-transfected second portion of proximal tubule (S2) cells, human organic cation transporter (OCT)2-transfected S2 cells, human organic anion transporting polypeptide (OATP)1B1-transfected human embryonic kidney 293 (HEK293) cells and their MOCK cells were kindly provided by Japan Fuji Biomedical Co., Ltd. (Osaka, Japan). Cells were cultured in DMEM supplemented with 10% FBS, 100 units/mL penicillin and 100 […]. All cells were incubated in a humidified atmosphere of 95% air and 5% CO2 at 37 °C. A solution of 0.25% trypsin-EDTA was used to detach the cells from flasks. Cell culture flasks, 24-well cell culture plates, and transwell polycarbonate inserts (12 mm diameter, 0.4 μm pore size) were purchased from Corning Co-star Corp. (Bedford, MA).
Inhibitory effects of GA and PCA on efflux transporters MDR1 and BCRP were investigated with the fluorogenic substrates rhodamine 123 (10 µM) and lucifer yellow (10 µM), respectively. The positive control inhibitors of MDR1 and BCRP were verapamil (10 µM) and cyclosporine (20 µM), respectively. The efflux experiments were adapted from previously reported methods with minor modifications (Reznicek et al. [2017]). Briefly, MDCK-MDR1, MDCK-BCRP and MDCK-mock cells were trypsinized and uniformly suspended in the designated volume of HBSS to provide a density of 4.0 × 10^5 cells/mL. For 0.5 mL of cell suspension and 1.5 mL of HBSS buffer medium were added in the apical and basolateral compartments of 12-well Transwell plates. After cultivation for 7 d, cells were washed twice and equilibrated for 30 min at 37 °C with the pre-warmed HBSS buffer. […] Fluorescence was measured at 485 nm (excitation) and 546 nm (emission) for rhodamine 123, and 425 nm (excitation) and 528 nm (emission) for Lucifer yellow. […]

[1] = estimated, 14C-PAH 5 µM, MDCK-OAT1 cells

O=C(O)c1cc(O)c(O)c(O)c1 [GA, gallic acid]
IC50 (OAT1; [1]): 3.73 µM
IC50 (OAT1) (OAT1; [1]): 0.6341 µg/mL (≈ 3.73 µM)
inhibitory effect on efflux of BCRP-mediated lucifer yellow (BCRP): no significant inhibitory effect

O=C(O)c1ccc(O)c(O)c1 [PCA, protocatechuic acid]
inhibitory effect on OAT1 (OAT1; GA 50–5000 μg/L, PCA 10–1000 μg/L): no significant inhibitory effect
inhibitory effect on efflux of BCRP-mediated lucifer yellow (BCRP): no significant inhibitory effect
efflux of lucifer yellow compared with the control (BCRP; relatively high concentrations): significant increase
